For assay [1], the system named is TEAD-dependent transcriptional activity. The assay can be described thus: 8xTEAD secreted nanoluciferase (TEAD-NLUC) reporter assay in HeLa cells. It counts as cell-based, human. Conditions: HeLa TEAD-NLUC, 6 h. An excerpt: The shortlisted sets of 16 compounds were first assayed for their ability to inhibit TEAD-dependent transcriptional activity in HeLa cells that had been transduced with a recombinant lentiviral vector expressing secreted bioluminescent nanoluciferase (NLUC) reporter gene enzyme, which is expressed under the control of a promoter region containing eight TEAD DNA-binding elements (TEAD-NLUC).
Compounds were initially screened for ability to inhibit TEAD-dependent transcriptional activity in HeLa cells transduced with a lentiviral vector expressing secreted nanoluciferase under the control of multimerized TEAD consensus elements (5′-[…]-3′). 8xTEAD NanoLuc was generated by cloning the 8xTEAD promoter from the 8xTEAD-Luc plasmid (Addgene #34615) into the pENTR gateway entry vector (Promega). This was then recombined into pLNT-sec-Nluc-2A-eGFP destination vector (supplied by Tristan McKay; University of Manchester). Lentiviruses were generated by Viafect-mediated co-transfection of pLNT8x-TEAD-sec-Nluc-2A-eGFP, Δ8.9, and VSV-G vectors into HEK293T cells (ATCC), and lentiviral-containing culture supernatants were used to infect HeLa cells in the presence of 6 μg/mL polybrene. For compound screening, 8xTEAD NanoLuc-transduced HeLa cells were seeded at 2 × 10^4 cells/well in 96-well plates. After 48 h, the cells were washed in PBS and incubated with test compounds at the indicated concentrations for 2 h. The cells were washed again in PBS and incubated with the compound for a further 4 h. Conditioned culture medium (50 μL) was assayed for secreted nanoluciferase activity using NanoGlo activity assays kit (Promega) and a Glomax Discover luminometer.

Assay [2] concerns CTGF promoter. The experiment in a line: CTGF-luciferase reporter in HeLa cells. It counts as cell-based, human. The conditions noted are these: 6 h, indicated concentrations. The text has this:
(§1) Activation of TEAD transcription factors in response to YAP binding induces the expression of many genes that encode proteins known to be involved in promoting cell proliferation and migration (see Supplement Figure 14). The best characterized TEAD target genes associated with the promotion of cell proliferation and migration are CCN1 and CTGF.[39],[59],[60] […] We therefore tested whether CPD3 inhibited the promoter activity of known TEAD target genes, CCN1 and CTGF, in the HeLa transformed cell line and primary rat VSMCs (RaVSMCs). Cells were transfected with plasmids expressing bioluminescent firefly luciferase reporter genes under the control of either the CCN1 or CTGF promoter regions. […] As both CCN1 and CTGF are classical TEAD target genes, this is consistent with the inhibition of TEAD activity by CPD3.
TNT1-minP reporter containing the Troponin-T minimal promoter was generated by digesting 8xGTIIC-luciferase plasmid (Addgene #34615) with Kpn1 and BglII to remove the TEAD elements, followed by blunt end re-ligation. A 2.177 kb fragment of the human CCN1 promoter containing two proximal TEAD elements (Hg19;chr1:86044316–chr1:86046493) was described previously[39] and cloned into pGL4-luciferase (Promega). […]
For orientation: In a reporter assay the amount or activity of a reporter protein is the signal.

Assay [3] relates to CCN1 promoter. The assay can be described thus: CCN1-luciferase reporter in RaVSMCs. The class given is cell-based, rat.
Excerpt: as §1
(§2) Figure 9 Compound 3.1 inhibits TEAD target gene expression, cell proliferation, and cell migration in RaVSMCs. […] Total RNA was analyzed for mRNA levels of TEAD-target genes (D) or constitutive housekeeping genes (E) by qRT-PCR. […] Total cell lysates were analyzed for CCN1 protein expression by Western blotting (F). […] RaVSMCs (I) or HuVSMC (J) were treated with indicated concentrations of compound 3.1 and cell migration quantified using IncuCyte real time migration assay (n = 4). […]

The test system of assay [4] is CTGF promoter. The experiment in a line: CTGF-luciferase reporter in RaVSMCs. The class given is cell-based, rat.
Excerpt: as §1, §2

For assay [5], the system named is RaVSMCs. The experiment in a line: Real-time IncuCyte scratch wound migration assay in RaVSMCs. It counts as cell-based, rat. As to the method: Cell proliferation was measured using the Click-iT EdU 488 assay (Sigma-Aldrich). Briefly, the cells were treated with indicated concentrations of compounds for 24 h with the last 4 h being in the presence of 10 μM EdU. The cells were fixed in 4% formaldehyde and stained for EdU incorporation, following the kit’s standard protocol. The cells were counterstained with Hoechst 33342 nucleic acid for 20 min. Fluorescent images of at least three fields of view per well were counted using ImageJ software. Real-time analysis of cell migration was performed using an IncuCyte ZOOM live cell imaging system (Essen BioScience) according to the manufacturer’s instructions. Briefly, the cells were seeded (1.2 × 10^4 cells/well for HeLa cells, 1.5 × 10^4 cells/well for RaVSMCs, and 1 × 10^4 cells/well) into ImageLock 96-well plates. After 36 h, the cells were pretreated overnight with indicated concentrations of compounds. The wells were scratched using a WoundMaker tool, and the media were replaced containing test compounds. Phase contrast images of cell migration into the wounded area were acquired hourly for 24 h. Relative wound confluence was calculated using the Cell Migration Image analysis module of the IncuCyte ZOOM software.
Supplement Figure 5: Effect of low micromolar doses of CPD3 on rat VSMC migration.
VSMC were incubated with the indicated doses of CPD3 for 18 hours before quantification […]

The term IC50 denotes the concentration that inhibits the measured activity by half.

For `Cc1ccc2c(c1)c1c3n2CCN(CC(O)CN2CCN(C(=O)c4ccco4)CC2)C3CCC1` (centres unmarked) [CPD3], the “concentration at which TEAD-dependent NLUC secretion was significantly inhibited” value in assay [1] stood at 60 µM. In addition, the IC50 in assay [1] (Homo sapiens, HeLa, read-out: IC50, TEAD-dependent NLUC secretion) is > 110 µM. Moreover, the “CTGF-luciferase reporter gene activity” value in assay [2] was “strong and significant dose-dependent inhibition”; in assay [4] (6 h, indicated concentrations), “strong and significant dose-dependent inhibition”. In assay [3] (6 h, indicated concentrations), the “CCN1-luciferase reporter gene activity” value was “strong and significant dose-dependent inhibition”. For the same molecule, in assay [5], the “cell migration (scratch wound)” value is listed as “dose-dependently inhibited”.

`Cc1ccc2c(c1)c1c3n2CCNC3CCC1` (centres unmarked) [CPD3.1]: the “concentration at which TEAD-dependent NLUC secretion was significantly inhibited” value in assay [1] turned out to be 20 µM. Further, the “CTGF-luciferase reporter gene activity” value in assay [2] is “dose-dependent inhibition”. Besides, the 50% inhibitory concentration (IC50) in assay [3] (Rattus norvegicus, 6 hr, read-out: IC50, CCN1-LUC (as printed in Figure 9B)) turned out to be 48 µM; in assay [4] (Rattus norvegicus, 6 hr, read-out: IC50, CTGF-LUC (as printed in Figure 9C)) it was 58 µM. Moreover, the “cell migration (scratch wound)” value in assay [5] is “inhibited in a dose-dependent manner by 2, 10, and 20 μM CPD3.1”.

For the origin of these results see paper PMC6701825, “Antiproliferative and Antimigratory Effects of a Novel YAP–TEAD Interaction Inhibitor Identified Using in Silico Molecular Docking” (Journal of Medicinal Chemistry, 2019).
